Reference: patent US20260207602A1, “EGFR INHIBITORS” (Blueprint Medicines Corporation, priority 2022, published 2026)

Legend:
EGFR (d746-750) = target: T1, EGFR (d746-750) (Homo sapiens, UniProt P00533, DEL746-750); assay: Biochemical EGFR inhibition assay (Caliper mobility shift), EGFR (d746-750); details: biochemical Caliper mobility shift assay, EGFR Exon 19-del enzyme; read-out: Enz EGFR Exon 19-del IC50
T1 construct: purchased SignalChem E10-122JG
Description: Inhibitory effects of the compounds of the disclosure were measured in biochemical assays that measure the phosphorylation activity of EGFR enzyme phosphorylates 2.5 micromolar 5-FAM-[…]-CONH2 peptide substrate (ProfilerPro Kinase Peptide Substrate 22, PerkinElmer, Part #760366) in the presence of adenosine-5′-triphosphate (ATP) and varying concentrations of the test compound in 100 mM 2-[4-(2-hydroxyethyl)piperazin-1-yl]ethanesulfonic acid (HEPES), pH 7.5, 10 mM MgCl2, 0.015% Brij-35, 1 mM dithiothreitol (DTT), 1.0% dimehylsulfoxide (DMSO). Assays were performed at 1.0 mM ATP or at ATP Km of the EGFR enzymes. Reactions proceeded until between 10% to 20% total peptides were phosphorylated at room temperature (25° C.) and were terminated with 35 mM 2,2′,2″,2′″-(ethane-1,2-diyldinitrilo)tetraacetic acid (EDTA). Product was detected using the Caliper mobility shift detection method where the phosphorylated peptide (product) and substrate were electrophoretically separated and measured. Percent activity was plotted against log concentration of compound and points to generate an apparent IC50. The following enzyme forms of • EGFR were examples that were used in these assays: • EGFR WT (SignalChem, E10-112G) • EGFR L858R (SignalChem, E10-122BG) • EGFR (d746-750) (SignalChem, E10-122JG) • EGFR L858R C797S (SignalChem, E10-122ZG) • EGFR (d746-750) C797S (SignalChem, E10-122TG)

EGFR L858R = target: T2, EGFR L858R (Homo sapiens, UniProt P00533, L858R); assay: Biochemical EGFR inhibition assay (Caliper mobility shift), EGFR L858R; details: biochemical Caliper mobility shift assay, EGFR L858R enzyme; read-out: Enz EGFR L858R IC50
T2 construct: purchased SignalChem E10-122BG
T2 sequence (P00533 25-1210 L858R): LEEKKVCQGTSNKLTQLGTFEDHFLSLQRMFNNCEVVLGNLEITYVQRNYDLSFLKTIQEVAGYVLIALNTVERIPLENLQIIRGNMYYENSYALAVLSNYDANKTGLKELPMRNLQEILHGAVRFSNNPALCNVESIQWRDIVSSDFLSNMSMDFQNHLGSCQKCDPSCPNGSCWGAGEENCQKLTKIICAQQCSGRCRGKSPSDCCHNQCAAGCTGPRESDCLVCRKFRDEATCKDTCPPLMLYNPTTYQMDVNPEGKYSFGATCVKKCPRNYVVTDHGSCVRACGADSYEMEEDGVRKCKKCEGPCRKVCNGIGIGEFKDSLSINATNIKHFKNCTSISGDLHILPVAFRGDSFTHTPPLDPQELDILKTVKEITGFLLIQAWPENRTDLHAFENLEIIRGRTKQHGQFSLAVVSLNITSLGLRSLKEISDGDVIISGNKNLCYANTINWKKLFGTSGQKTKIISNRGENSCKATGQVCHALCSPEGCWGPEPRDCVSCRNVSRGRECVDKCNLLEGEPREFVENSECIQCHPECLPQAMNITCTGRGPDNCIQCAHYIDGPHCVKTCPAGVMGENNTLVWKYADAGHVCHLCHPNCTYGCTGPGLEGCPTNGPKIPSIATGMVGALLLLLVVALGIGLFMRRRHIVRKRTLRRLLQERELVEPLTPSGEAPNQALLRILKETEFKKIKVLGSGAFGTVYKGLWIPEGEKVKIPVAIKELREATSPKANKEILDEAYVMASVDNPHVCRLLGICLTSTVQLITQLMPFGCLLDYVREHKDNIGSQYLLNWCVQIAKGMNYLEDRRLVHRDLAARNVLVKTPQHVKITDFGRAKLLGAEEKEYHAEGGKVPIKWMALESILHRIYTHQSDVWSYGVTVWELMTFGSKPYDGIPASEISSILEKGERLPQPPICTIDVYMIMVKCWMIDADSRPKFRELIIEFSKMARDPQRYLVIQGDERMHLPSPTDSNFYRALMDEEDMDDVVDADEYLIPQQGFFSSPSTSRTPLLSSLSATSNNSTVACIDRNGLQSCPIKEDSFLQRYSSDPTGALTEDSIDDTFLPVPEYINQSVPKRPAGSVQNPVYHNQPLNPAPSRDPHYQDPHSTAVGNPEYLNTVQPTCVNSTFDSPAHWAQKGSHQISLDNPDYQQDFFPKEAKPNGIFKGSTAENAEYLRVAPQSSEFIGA
In short: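 Apparent IC50 from Caliper separation of phospho-peptide from substrate. Conditions: 2.5 µM 5-FAM peptide, 1.0 mM ATP or ATP Km, pH 7.5 HEPES buffer, room temperature, 10–20% conversion, EDTA stop.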

[1] = target: intracellular phosphorylation of EGFR (Tyr1068) in PC-9 cells (Homo sapiens, UniProt P00533, DEL746-750); assay: PC-9 pEGFR AlphaLISA assay; type: cell-based; details: 4 hours incubation, read-out: Phos EGFR PC9 IC50
intracellular phosphorylation of EGFR (Tyr1068) in PC-9 cells, sequence (P00533 with tags, fused parts or gaps DEL746-750): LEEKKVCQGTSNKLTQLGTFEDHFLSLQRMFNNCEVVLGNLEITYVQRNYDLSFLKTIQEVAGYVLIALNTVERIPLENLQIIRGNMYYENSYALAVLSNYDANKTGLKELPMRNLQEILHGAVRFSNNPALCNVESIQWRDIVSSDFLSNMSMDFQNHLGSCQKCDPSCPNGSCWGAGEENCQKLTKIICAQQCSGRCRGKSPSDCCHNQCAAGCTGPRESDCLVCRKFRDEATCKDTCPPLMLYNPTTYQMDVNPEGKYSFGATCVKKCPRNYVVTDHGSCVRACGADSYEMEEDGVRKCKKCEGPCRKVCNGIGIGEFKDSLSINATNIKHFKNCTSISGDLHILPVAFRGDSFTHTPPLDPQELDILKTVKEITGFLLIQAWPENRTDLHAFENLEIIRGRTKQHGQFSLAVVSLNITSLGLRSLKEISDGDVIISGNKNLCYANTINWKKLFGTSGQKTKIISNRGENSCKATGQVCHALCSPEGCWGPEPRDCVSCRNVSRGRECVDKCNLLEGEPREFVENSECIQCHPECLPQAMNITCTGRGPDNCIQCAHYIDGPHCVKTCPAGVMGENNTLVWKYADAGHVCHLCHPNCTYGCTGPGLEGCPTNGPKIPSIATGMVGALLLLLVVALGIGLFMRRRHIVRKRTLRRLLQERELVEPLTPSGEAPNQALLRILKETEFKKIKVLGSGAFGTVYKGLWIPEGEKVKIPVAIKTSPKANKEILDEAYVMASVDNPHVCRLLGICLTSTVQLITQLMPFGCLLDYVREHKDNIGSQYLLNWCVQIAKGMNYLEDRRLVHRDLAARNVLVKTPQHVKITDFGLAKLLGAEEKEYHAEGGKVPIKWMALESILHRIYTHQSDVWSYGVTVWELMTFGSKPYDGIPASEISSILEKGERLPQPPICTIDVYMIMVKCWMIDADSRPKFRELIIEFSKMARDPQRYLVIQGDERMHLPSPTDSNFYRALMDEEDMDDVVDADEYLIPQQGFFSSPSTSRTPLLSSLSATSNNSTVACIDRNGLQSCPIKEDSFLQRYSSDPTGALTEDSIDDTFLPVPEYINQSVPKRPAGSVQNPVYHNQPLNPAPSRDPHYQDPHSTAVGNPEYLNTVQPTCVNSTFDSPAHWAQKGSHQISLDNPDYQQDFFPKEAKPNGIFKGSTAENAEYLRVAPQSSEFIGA
Description: PC-9/A431 pEGFR AlphaLISA Assays
Inhibitory effects of compounds were evaluated in cellular assays that measure level of intracellular phosphorylation of EGFR in PC-9 (ECACC, #90071810, Milipore/Sigma) and A431 cell lines (ATCC, CRL-1555) using AlphaLISA sureFire ultra p-EGFR (Tyr1068) assay kit (PerkinElmer, ALSU-PEGFR-A50K). PC-9 cells were seeded at 3.125×10^5 cells/ml in 40 μL phenol-free DMEM supplemented with 10% FBS per well of a 384 well plate (Corning, 3764), while A431 were seeded at […] in 40 μL in phenol-free DMEM with 0.5% FBS. Cells were allowed to adhere overnight at 37° C./5% CO2. On the next day, compounds were transferred at 4-fold, 10-point serial dilution from compound source plate to cell plates using liquid handler Echo550 and were incubated at 37° C./5% CO2 for 4 hours. A431 cells were stimulated prior harvesting for 10 min with EGF at final concentration of 30 ng/ml in the incubator. Medium was removed from the plates and cells were lysed with 10 μL of 1× AlphaLISA lysis buffer (supplemented with 1× protease/phosphatase inhibitor cocktail) followed by shaking at 600 rpm for 30 minutes at room temperature. Lysates were transferred to Optiplate (Apricot designs) and 5 ul of 1× acceptor bead mix (prepared just before use) was added to each well followed by incubation at room temperature for 1.5-2 h in dark. Then 5 μL of freshly-made donor bead mix is added to each well under subdued lighting or green filters, was mixed well on the shaker and the plate was sealed and left for an overnight incubation at room temperature in dark. On the next day, the plate was read the Envision using standard AlphaLisa settings. Percent of pEGFR inhibition was plotted against log concentration of compounds to generate IC50 values.

T1 sequence (P00533 with tags, fused parts or gaps DEL746-750 limits assumed): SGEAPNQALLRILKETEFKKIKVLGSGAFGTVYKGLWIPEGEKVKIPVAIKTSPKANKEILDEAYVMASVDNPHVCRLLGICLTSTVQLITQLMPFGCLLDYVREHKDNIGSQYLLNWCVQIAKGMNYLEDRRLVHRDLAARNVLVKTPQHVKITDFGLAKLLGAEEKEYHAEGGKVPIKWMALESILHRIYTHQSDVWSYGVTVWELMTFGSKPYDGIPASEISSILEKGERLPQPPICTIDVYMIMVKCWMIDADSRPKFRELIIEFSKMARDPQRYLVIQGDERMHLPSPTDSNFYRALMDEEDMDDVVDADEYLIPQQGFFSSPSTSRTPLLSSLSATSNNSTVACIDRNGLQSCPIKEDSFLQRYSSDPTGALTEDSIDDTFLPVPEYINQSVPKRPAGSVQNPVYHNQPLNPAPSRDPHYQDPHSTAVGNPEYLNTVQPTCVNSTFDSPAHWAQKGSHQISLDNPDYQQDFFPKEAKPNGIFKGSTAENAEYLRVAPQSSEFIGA

Compound	IC50 (EGFR (d746-750)) [nM]	IC50 (EGFR L858R) [nM]	IC50 [1] [nM]
C[C@H](CO)n1cc(-c2cc(O[C@H](C)C3COC3)c3c(Nc4ccc5ncsc5c4)ncnc3c2)cn1 (single isomer, unassigned) [Example 297]	≤ 10	≤ 10	≤ 10
COc1cn(C)nc1-c1cc(OC2CCN(C)CC2)c2c(Nc3ccc4ncsc4c3)ncnc2c1 [Example 314, N-(7-(4-methoxy-1-methyl-1H-pyrazol-3-yl)-5-((1-methylpiperidin-4-yl)oxy)quinazolin-4-yl)benzo[d]thiazol-6-amine]	≤ 10	≤ 10	≤ 10
C[C@@H]1OC[C@@H]1Oc1cc(-c2cnn(C)c2)cc2ncnc(Nc3ccc4ncsc4c3)c12 (racemic) [Example 9, cis-N-(7-(1-methyl-1H-pyrazol-4-yl)-5-((-2-methyloxetan-3-yl)oxy)quinazolin-4-yl)benzo[d]thiazol-6-amine]	≤ 10	≤ 10	10.1 to 50
C[C@@H]1CN(c2cc(O[C@@H](C)CN(C)C)c3c(Nc4ccc5ncsc5c4)ncnc3c2)C[C@H](C)O1 (single isomer, unassigned) [Example 149]	10.1 to 50	> 50.1	10.1 to 50
CN1CCC[C@H](Oc2cc(-c3cn(C)n(C(F)F)c3=O)cc3ncnc(Nc4ccc5ncsc5c4)c23)C1 [Example 249, (S)-4-(4-(benzo[d]thiazol-6-ylamino)-5-((1-methylpiperidin-3-yl)oxy)quinazolin-7-yl)-2-(difluoromethyl)-1-methyl-1,2-dihydro-3H-pyrazol-3-one]	≤ 10	≤ 10	10.1 to 50
Cn1cc(-c2cc(OCC(=O)N3CCC3)c3c(Nc4ccc5ncsc5c4)ncnc3c2)cn1 [Example 271, 1-(azetidin-1-yl)-2-((4-(benzo[d]thiazol-6-ylamino)-7-(1-methyl-1H-pyrazol-4-yl)quinazolin-5-yl)oxy)ethan-1-one]	≤ 10	≤ 10	10.1 to 50
C[C@@H](Oc1cc(-c2cnn(C)c2)cc2ncnc(Nc3ccc4ncsc4c3)c12)C(F)(F)F [Example 67, (R)-N-(7-(1-methyl-1H-pyrazol-4-yl)-5-((1,1,1-trifluoropropan-2-yl)oxy)quinazolin-4-yl)benzo[d]thiazol-6-amine]	≤ 10	≤ 10	10.1 to 50
Cn1cc(-c2cc(O[C@H]3CC[C@H](O)CC3)c3c(Nc4ccc5ncsc5c4)ncnc3c2)cn1 [Example 5, (1r,4r)-4-((4-(benzo[d]thiazol-6-ylamino)-7-(1-methyl-1H-pyrazol-4-yl)quinazolin-5-yl)oxy)cyclohexan-1-ol]	≤ 10	≤ 10	≤ 10
COC[C@H](C)Oc1cc(N2CCN(C(C)C)C2=O)cc2ncnc(Nc3ccc4ncsc4c3)c12 (single isomer, unassigned) [Example 118]	≤ 10	≤ 10	≤ 10
CC(C)n1cc(-c2cc(OC3CCOCC3)c3c(Nc4ccc5ncsc5c4)ncnc3c2)cn1 [Example 191, N-(7-(1-isopropyl-1H-pyrazol-4-yl)-5-((tetrahydro-2H-pyran-4-yl)oxy)quinazolin-4-yl)benzo[d]thiazol-6-amine]	≤ 10	≤ 10	10.1 to 50
Cn1cc(-c2cc(O[C@@H]3CNC[C@H](F)C3)c3c(Nc4ccc5ncsc5c4)ncnc3c2)cn1 (single isomer, unassigned) [Example 334]	≤ 10	≤ 10	10.1 to 50
C[C@@H](Oc1cc(N2CCN(C)CC2)cc2ncnc(Nc3ccc4ncsc4c3F)c12)C1COC1 (single isomer, unassigned) [Example 95]	≤ 10	10.1 to 50	10.1 to 50
CN1CC[C@@H](Oc2cc(-c3cnn(C)c3)cc3ncnc(Nc4ccc5ncsc5c4)c23)C1 [Example 35, (R)-N-(7-(1-methyl-1H-pyrazol-4-yl)-5-((1-methylpyrrolidin-3-yl)oxy)quinazolin-4-yl)benzo[d]thiazol-6-amine]	≤ 10	10.1 to 50	10.1 to 50
Cn1cc(-c2cc(O[C@H]3CCCN(C4COC4)C3)c3c(Nc4ccc5ncsc5c4)ncnc3c2)cn1 [Example 317, (S)-N-(7-(1-methyl-1H-pyrazol-4-yl)-5-((1-(oxetan-3-yl)piperidin-3-yl)oxy)quinazolin-4-yl)benzo[d]thiazol-6-amine]	≤ 10	≤ 10	≤ 10
Cn1cc(-c2cc(O[C@H]3CNC[C@@H]3F)c3c(Nc4ccc5ncsc5c4)ncnc3c2)cn1 [Example 382, N-(5-(((3S,4S)-4-fluoropyrrolidin-3-yl)oxy)-7-(1-methyl-1H-pyrazol-4-yl)quinazolin-4-yl)benzo[d]thiazol-6-amine]	≤ 10	10.1 to 50	> 50.1

Results, then the compound that gave them:

IC50 (EGFR (d746-750)) [nM]	IC50 (EGFR L858R) [nM]	IC50 [1] [nM]	Compound
≤ 10	≤ 10	≤ 10	C[C@H]1CN(C)CCN1C(=O)Nc1cc2c(Nc3ccc4ncsc4c3)ncnc2cc1-c1ccn(C)n1 [Example 399, (S)-N-(4-(benzo[d]thiazol-6-ylamino)-7-(1-methyl-1H-pyrazol-3-yl)quinazolin-6-yl)-2,4-dimethylpiperazine-1-carboxamide]
10.1 to 50	> 50.1	10.1 to 50	COc1cc2ncnc(Nc3ccc4ncsc4c3)c2cc1NC(=O)C1CN(C)C1 [Example 402, N-(4-(benzo[d]thiazol-6-ylamino)-7-methoxyquinazolin-6-yl)-1-methylazetidine-3-carboxamide]
≤ 10	≤ 10	10.1 to 50	Cn1cc(-c2cc(OCC3CCOC3)c3c(Nc4ccc5ncsc5c4)ncnc3c2)cn1 (stereo not drawn) [Example 413, N-(7-(1-methyl-1H-pyrazol-4-yl)-5-((tetrahydrofuran-3-yl)methoxy)quinazolin-4-yl)benzo[d]thiazol-6-amine]
> 50.1	> 50.1	> 50.1	CC[C@H](Oc1cc(-c2cnn(C)c2)cc2ncnc(Nc3ccc4ncsc4c3F)c12)C1CN(C)C1 (single isomer, unassigned) [Example 390]
≤ 10	≤ 10	≤ 10	COC[C@@H](C)Oc1cc(-n2cc([C@H](C)O)cn2)cc2ncnc(Nc3ccc4ncsc4c3F)c12 [Example A20, (S)-1-(1-(4-((7-fluorobenzo[d]thiazol-6-yl)amino)-5-(((R)-1-methoxypropan-2-yl)oxy)quinazolin-7-yl)-1H-pyrazol-4-yl)ethan-1-ol, OR (R)-1-(1-(4-((7-fluorobenzo[d]thiazol-6-yl)amino)-5-(((R)-1-methoxypropan-2-yl)oxy)quinazolin-7-yl)-1H-pyrazol-4-yl)ethan-1-ol]
≤ 10	10.1 to 50	> 50.1	C[C@@H](Oc1c(F)c(-c2cnn(C)c2)cc2ncnc(Nc3ccc4ncsc4c3F)c12)C1COC1 (single isomer, unassigned) [Example A28]
≤ 10	≤ 10	≤ 10	CCN1CCN(C(=O)Nc2cc3c(Nc4ccc5ncsc5c4F)ncnc3cc2-c2ccn(C)n2)[C@@H](C)C1 [Example 398, (S)-4-ethyl-N-(4-((7-fluorobenzo[d]thiazol-6-yl)amino)-7-(1-methyl-1H-pyrazol-3-yl)quinazolin-6-yl)-2-methylpiperazine-1-carboxamide]
